For orientation: EC50 means the concentration needed to bring the measured effect to its halfway point.

The target in experiment [1] is T1, Kv3.1 (Homo sapiens, UniProt P48547).
T1 construct: gene KCNC1; Full-length human Kv3.1 (isoform A)
T1 sequence (P48547 1-511): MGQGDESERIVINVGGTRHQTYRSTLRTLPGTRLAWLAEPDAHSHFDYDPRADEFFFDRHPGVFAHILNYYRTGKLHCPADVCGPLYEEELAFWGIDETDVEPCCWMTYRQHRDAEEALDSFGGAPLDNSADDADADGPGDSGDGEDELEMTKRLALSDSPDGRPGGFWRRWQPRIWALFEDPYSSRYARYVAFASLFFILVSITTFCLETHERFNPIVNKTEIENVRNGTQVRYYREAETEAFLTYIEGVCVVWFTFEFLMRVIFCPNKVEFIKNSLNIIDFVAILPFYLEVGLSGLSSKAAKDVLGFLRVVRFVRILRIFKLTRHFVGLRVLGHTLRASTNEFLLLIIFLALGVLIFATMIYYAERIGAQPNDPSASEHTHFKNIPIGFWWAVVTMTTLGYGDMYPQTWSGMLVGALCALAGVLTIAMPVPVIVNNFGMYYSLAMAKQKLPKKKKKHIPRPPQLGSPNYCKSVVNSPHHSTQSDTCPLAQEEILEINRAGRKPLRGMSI
As to the kind of experiment: cryo-EM structure of the complex ([…] Å); supported by TEVC of Kv3.[…] and binding-site mutants.

Experiment [2] concerns the target T2, Kv3.2 (Homo sapiens, UniProt Q96PR1).
T2 construct: gene KCNC2
T2 sequence (Q96PR1 1-638): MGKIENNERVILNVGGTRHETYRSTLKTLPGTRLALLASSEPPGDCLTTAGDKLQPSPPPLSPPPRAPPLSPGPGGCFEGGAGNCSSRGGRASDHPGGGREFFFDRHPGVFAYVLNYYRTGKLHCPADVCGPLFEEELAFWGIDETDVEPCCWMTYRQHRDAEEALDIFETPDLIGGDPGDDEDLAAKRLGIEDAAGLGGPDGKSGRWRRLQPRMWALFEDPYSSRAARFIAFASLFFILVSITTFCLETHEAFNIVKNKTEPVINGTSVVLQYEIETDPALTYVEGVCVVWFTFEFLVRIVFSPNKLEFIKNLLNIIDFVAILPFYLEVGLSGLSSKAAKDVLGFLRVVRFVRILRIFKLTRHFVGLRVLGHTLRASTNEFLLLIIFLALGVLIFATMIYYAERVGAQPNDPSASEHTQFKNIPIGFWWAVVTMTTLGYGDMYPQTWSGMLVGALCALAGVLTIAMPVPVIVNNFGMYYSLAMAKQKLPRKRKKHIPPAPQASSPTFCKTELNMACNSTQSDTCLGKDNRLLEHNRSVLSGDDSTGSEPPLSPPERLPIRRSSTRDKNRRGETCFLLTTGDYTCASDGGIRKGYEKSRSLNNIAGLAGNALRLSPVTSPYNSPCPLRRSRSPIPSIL
As to the kind of experiment: TEVC in Xenopus oocytes, concentration dependence of ΔV0.[…]. The format is cell-based.

On to `CC[C@H]1NC(=O)N(c2ccc(Oc3cccc4c3C3(CC3)CO4)nc2)C1=O` [AUT5, (5 R)-5-ethyl-3-[6-(spiro[1-benzofuran-3,1’-cyclopropan]-4-yloxy)-3-pyridinyl]-2,4-imidazolidinedione], for which, in experiment [1], the “cryo-EM structure of the complex (2.5 Å); supported by TEVC of Kv3.1 and binding” value is “A non-protein in the electron density map consistent with AUT5 is found in a cavity between S4 and S5 helices”. Moreover, in experiment [2], the EC50 was determined as 3.2 µM.

(Values after article PMC10957983, “The binding and mechanism of a positive allosteric modulator of Kv3 channels” (Nature Communications, 2024).)
